Results: patent US20240304334A1, “CLOTTABILITY-BASED PERSONALIZED TREATMENT (CPT) SYSTEM” (priority 2021, published 2024)
Values joined by “and” are separate entries in the source; they are usually repeats but may differ in a detail not shown here. Equal entries are not always repeated. Blank lines part the entries; values can stand above or below the molecule they belong to.

Key:
[1] = test system: AECOPD patients; experiment: Blood gas analysis in AECOPD patients; assay type: in vivo, human; conditions: for PCO2 / SO2: AECOPD
Text: (§1) This is again another example how anticoagulant treatment reduces pathological in vivo thrombin generation with the concomitant reduction of fibrin-derivatives detectable by CCT. This example is a highly prevalent (>10%) progressive chronic disease, which has strong clinical manifestations of immune and coagulation systems. Chronic obstructive pulmonary disease (COPD) is an inflammatory lung disease that affects respiratory function with concomitant high thrombosis risk. In this example, study subjects were the 70 patients diagnosed with COPD and developed acute exacerbation form of COPD (AECOPD). On top of the standard AECOPD treatments e.g. anti-infection, bronchodilation, phlegm elimination, and oxygen treatment, etc, 32 of these AECOPD patients received no additional treatment and the other 38 of them were treated with low molecular weight heparin calcium (LMWH, 4100 IU anti-FXa/injection every 12 hrs, for 10 days).
(§2) Treatment efficacy was evaluated based on several parameters: pulmonary function, blood gas analysis and coagulation parameters. All this information were obtained before and after the LMWH anticoagulant treatment, the same for the control group. The pulmonary function was measured with several methods, such as FEV1 (measurement of forced expiratory volume in 1 sec after bronchodilator was inhaled) and FVC (forced vital capacity, and the ratio of FEV/FVC in % as clinical signs of respiratory performance). Blood gas analysis was obtained by measuring oxygen saturation of blood (SO2), partial pressure of oxygen (PO2) and partial pressure of carbon dioxide (PCO2). Several blood coagulation parameters were measured; they are CCT, DD, PT-INR.

[2] = test system: AECOPD patients; experiment: Pulmonary function in AECOPD patients; assay type: in vivo, human
Text: as §1, §2

[3] = test system: fibrinogen and fibrin-derivatives; experiment: CCT in AECOPD patients; assay type: in vivo, human
Text: as §1
(§3) Treatment efficacy was evaluated based on several parameters: pulmonary function, blood gas analysis and coagulation parameters. […] The pulmonary function was measured with several methods, such as FEV1 (measurement of forced expiratory volume in 1 sec after bronchodilator was inhaled) and FVC (forced vital capacity, and the ratio of FEV/FVC in % as clinical signs of respiratory performance). […] Several blood coagulation parameters were measured; they are CCT, DD, PT-INR.

[4] = test system: D-dimer; experiment: DD in AECOPD patients; assay type: in vivo, human
Text: as §1, §3

[5] = test system: coagulation system; experiment: PT and INR in AECOPD patients; assay type: in vivo, human
Text: as §1, §2

[6] = co-administering Rifampicin (P-glycoprotein inducer); cited from earlier work
[7] = test system: coagulation pathway; experiment: Clottability test (CCT minus TFT) in plasma of patients on anticoagulants, clinical study C; assay type: in vivo, human; conditions: individual patient plasma, single time point, on anticoagulant
Method: For determination of the clottability of blood, combined clottability assays were performed using a (a) clot-based and (b) enzyme-based fibrinogen test. The information provided by the assay is whether the blood is normal-clottable, hyperclottable, or hypoclottable by measuring fibrinogen concentration in blood plasma.
To estimate the clotting dynamics, […]. Thus, clottability is determined by […] (clottability=CCT−TFT). Exemplary, high values after subtraction of the obtained concentrations of the tests indicate high amounts of pro-coagulable factors and thus increased thrombin activity. Therefore, the greater the in vivo thrombin activation, the higher the obtained values from the clottability test. This leads to the finding that high values relate to an increased clottability.
The skilled person is aware of how to perform the CCT test. Thus, as an example, Multifibren-U from Siemens and/or HemoslL Fibrinogen-C from IL/Werfen can be used. Moreover, it is known that the CCT test can show a higher fibrinogen concentration than the actual concentration due to enhanced clotting efficiency by the pro-coagulable factors due to the thrombin activity. […]

[8] = test system: fibrinogen and fibrin-derivatives; experiment: CCT before and after anticoagulant in healthy volunteers; assay type: in vivo, human; conditions: 6 healthy volunteers; for CCT average after treatment: 3 hrs after last intake, rivaroxaban 15 mg twice daily 2.5 days, apixaban 10 mg twice daily 3.5 days; for CCT average before treatment: just before anticoagulant intake; for difference in CCT after vs before treatment: not statistical significant
Method: The skilled person is aware of how to perform the CCT test. Thus, as an example, Multifibren-U from Siemens and/or HemoslL Fibrinogen-C from IL/Werfen can be used. Moreover, it is known that the CCT test can show a higher fibrinogen concentration than the actual concentration due to enhanced clotting efficiency by the pro-coagulable factors due to the thrombin activity. […] In such study, rivaroxaban study was performed on 6 healthy volunteers, with ages between 18-50 years. They fulfilled the criteria of normal vital signs and lab screening tests for infection, hematology and coagulation, and had no abnormalities at physical examination. They were given 15 mg rivaroxaban twice daily for 2.5 days. The dosage of twice-daily 15 mg was chosen as it is the highest approved dosage for the initial treatment of acute venous thromboembolism (VTE). The apixaban study was performed on another 6 healthy volunteers, with the same health profile requirements as rivaroxaban study. These 6 volunteers were given 10 mg apixaban twice daily for 3.5 days. Blood samples were drawn just before anticoagulants intake and 3 hrs after the last intake. Measurement of fibrinogen was in duplicate.

[9] = test system: patients with acute cerebral infarction (ACI); experiment: Neurological assessment (NIHSS) in acute cerebral infarction patients; assay type: in vivo, human; conditions: ACI patients n=35, 2 weeks, plus aspirin 100 mg/day
Method: (§4) Seventy patients who had complete clinical record and were diagnosed with acute cerebral infarction (ACI), either validated by CT or MRI, were included into this study. They have to be the first time patients of ACI and the disease onset should be shorter than 72 hours, and the cause of the cerebral infarction was cardiac origin, and they were without abnormal renal function, without bleeding history and hemostatic abnormality. These 70 patients were divided into 2 groups, 35 in control group and the other 35 in observational group. The control group patients were treated with rivaroxaban (anticoagulant), while observational group patients were treated combined rivaroxaban and sodium ozagrel (anti-platelet). Sodium ozagrel inhibits platelet activation and aggregation through specific inhibition of thromboxane (TX) synthetase. Due to the inhibitory effect of ozagrel on platelet activation, platelets cease to become the main lipid surface of thrombin generation. Beside standard treatment such as enriched oxygen supply, etc, all 70 patients were treated with aspirin 100 mg/tablet/day. Additionally, the control and observational groups were given rivaroxaban 15 mg/tablet/day. On top of rivaroxaban, the observational group received intravenously and daily 80 mg of ozagrel sodium in 500 mL glucose (5%) solution. Everyone was treated for 2 weeks. Both groups have very similar age mean and range (40-70 years). After 2 weeks of treatment, clinical efficacy (neurological assessments), coagulation lab tests (only CCT is shown) and GCS scores of the two groups were compared. Neurological […] according to NIH stroke scale (NIHSS). When NIHSS score reduces ≥90%, the disability classification is grade 0, and the treatment is highly efficacious. When NIHSS score reduces to between 46% and 89%, the disability classification is grade 1 to 3, the treatment is considered efficacious. The treatment is no efficacious, when the score is below 46%.

[10] = test system: Fibrin(ogen); experiment: CCT in acute cerebral infarction patients; assay type: in vivo, human; conditions: ACI patients
Method: as §4

[11] = test system: patients with acute cerebral infarction (ACI); experiment: Glasgow coma score (GCS) in acute cerebral infarction patients; assay type: in vivo, human
Method: Seventy patients who had complete clinical record and were diagnosed with acute cerebral infarction (ACI), either validated by CT or MRI, were included into this study. They have to be the first time patients of ACI and the disease onset should be shorter than 72 hours, and the cause of the cerebral infarction was cardiac origin, and they were without abnormal renal function, without bleeding history and hemostatic abnormality. These 70 patients were divided into 2 groups, 35 in control group and the other 35 in observational group. The control group patients were treated with rivaroxaban (anticoagulant), while observational group patients were treated combined rivaroxaban and sodium ozagrel (anti-platelet). Sodium ozagrel inhibits platelet activation and aggregation through specific inhibition of thromboxane (TX) synthetase. Due to the inhibitory effect of ozagrel on platelet activation, platelets cease to become the main lipid surface of thrombin generation. Beside standard treatment such as enriched oxygen supply, etc, all 70 patients were treated with aspirin 100 mg/tablet/day. Additionally, the control and observational groups were given rivaroxaban 15 mg/tablet/day. On top of rivaroxaban, the observational group received intravenously and daily 80 mg of ozagrel sodium in 500 mL glucose (5%) solution. Everyone was treated for 2 weeks. Both groups have very similar age mean and range (40-70 years). The coma assessment was carried out before and after treatment on all subjects, based on Glasgow coma score (GCS) scoring system, which has 15 as full score. The degree of coma is lighter and is reflected with higher score. The recovery based on GCS is summarized in Table 4, together with CCT results.

[12] = human, in vivo
Method: Plasma samples from 19 patients were tested to investigate the coagulation pathway activity using the clottability test (CCT and TFT) and D-dimer test. These patients were receiving various anticoagulant drugs, such as rivaroxaban, apixaban, edoxaban, dabigatran, or argatroban, and the drug concentrations of each individual were determined. The aim of the study was to examine the activity of the coagulation pathway by means of both, the clottability test and D-dimer test in relation to the determined drug concentration in the plasma.

Molecule: low molecular weight heparin calcium [LMWH]
PO2 ([1]; AECOPD patients n=38, after 10 days LMWH plus standard treatment): 78.4 mmHg
PO2 ([1]; AECOPD patients n=38, before treatment): 71.5 mmHg
PCO2 ([1]; after treatment): 41.9 mmHg
SO2 ([1]; after treatment): 98.6%
PCO2 ([1]; before treatment): 52.2 mmHg
SO2 ([1]; before treatment): 90.8%
FEV1 ([2]; after treatment): 1.89 L
FEV1/FVC ([2]; after treatment): 78.4%
FEV1 ([2]; before treatment): 1.36 L
FEV1/FVC ([2]; before treatment): 62.3%
CCT ([3]; after treatment): 2.16
CCT ([3]; before treatment): 3.97
DD ([4]; after treatment): 237.4 µg/L
DD ([4]; before treatment): 482.8 µg/L
INR ([5]; after treatment): 1.36
PT ([5]; after treatment): 13.7
INR ([5]; before treatment): 0.87
PT ([5]; before treatment): 9.6

Molecule: [H]/N=C(/N)c1ccc(NCc2nc3cc(C(=O)N(CCC(=O)O)c4ccccn4)ccc3n2C)cc1 [dabigatran]
decrease of maximum plasma concentration of dabigatran [6]: approximately 67%

Molecule: O=C(NC[C@H]1CN(c2ccc(N3CCOCC3=O)cc2)C(=O)O1)c1ccc(Cl)s1 [rivaroxaban]
Clottability test [7]: > 1.5 g/L and 1.7 g/L and -0.5 g/L and 0.6 g/L and 2 g/L
CCT average after treatment [8]: 2.64
CCT average before treatment [8]: 2.75
difference in CCT after vs before treatment [8]: −0.11
efficacious (NIHSS reduction 46% to 89%), number of patients [9]: 8
efficacious (NIHSS), share of patients [9]: (22.9%)
highly efficacious (NIHSS score reduces ≥90%), number of patients [9]: 16
highly efficacious (NIHSS), share of patients [9]: (45.7%)
non-efficacious (NIHSS below 46%), number of patients [9]: 11
non-efficacious (NIHSS), share of patients [9]: (31.4%)
total efficacious (NIHSS), number of patients [9]: 24
total efficacious (NIHSS), share of patients [9]: 68.6%
Fibrin(ogen) CCT ([10]; T0 before treatment): 3.93 ± 1.49
Fibrin(ogen) CCT ([10]; T1 after 2 weeks of treatment): 3.15 ± 1.12
Fibrin(ogen) CCT, difference in mean ([10]; T1 vs T0): −0.78
GCS score ([11]; T0 before treatment): 6.8 ± 1.11
GCS score ([11]; T1 after 2 weeks of treatment): 9.07 ± 1.92
GCS score, difference in mean ([11]; T1 vs T0): 2.27

Molecule: COc1ccc(-n2nc(C(N)=O)c3c2C(=O)N(c2ccc(N4CCCCC4=O)cc2)CC3)cc1 [apixaban]
Clottability test [7]: > 1.5 g/L and 2.7 g/L and 0.8 g/L and 1.8 g/L
CCT average after treatment [8]: 2.38
CCT average before treatment [8]: 2.56
difference in CCT after vs before treatment [8]: −0.18

PK profile [12]: bottom
Molecule: CC1CNc2c(cccc2S(=O)(=O)N[C@@H](CCCNC(=N)N)C(=O)N2CC[C@@H](C)C[C@@H]2C(=O)O)C1 (stereo partly drawn) [argatroban]
